Measured values reported in ChEMBL document CHEMBL1140359, “Solid-phase synthesis and anti-infective activity of a combinatorial library based on the natural product anisomycin” (Bioorg Med Chem Lett, 2005).
In brackets after ≈: the same amount, converted by molar mass.

Key:
[1] = test system: Candida albicans; assay: Percent inhibition against efflux-deficient strain of Candida albicans at 15.5 uM; type: functional
[2] = test system: HEK293; assay: Inhibitory concentration required to produce cytotoxicity against HEK293 cells; type: functional, cell-based; settings: Homo sapiens
[3] = test system: Candida albicans; assay: Percent inhibition against RG-1 mutant strain of Candida albicans at 15.5 uM; type: functional
[4] = test system: Staphylococcus aureus; assay: Minimum inhibitory concentration against Staphylococcus aureus; type: functional
[5] = test system: Staphylococcus aureus; assay: Percent inhibition against MurPath in Staphylococcus aureus cell walls at the concentration of 25 uM; type: functional
[6] = test system: Staphylococcus aureus; assay: Percent inhibition against MraY/MurG in Staphylococcus aureus cell walls at 25 uM; type: functional

| SMILES | inhibition at 15.5 µM [1] [%] | IC50 [2] [µM] | inhibition at 15.5 µM [3] [%] | MIC [4] [µg/mL] | inhibition at 25 µM [5] [%] | inhibition at 25 µM [6] [%] |
| --- | --- | --- | --- | --- | --- | --- |
| COc1ccc(C[C@@H]2[C@H](OC(=O)NCc3ccccc3-c3ccccc3)[C@@H](O)CN2C(=O)OCC(C)C)cc1 | 82 | 11 | < 5 | – | – | – |
| COc1ccc(C[C@@H]2[C@H](OC(=O)NCc3ccc(F)cc3)[C@@H](O)CN2C(=O)c2cc(C(F)(F)F)cc(C(F)(F)F)c2)cc1 | 87 | 8 | < 5 | – | – | – |
| COc1ccc(C[C@H]2NC[C@H](O)[C@H]2OC(C)=O)cc1 [ANISOMYCIN] | > 99 | 0.02 | – | > 32 | – | – |
| CCCOC(=O)N1C[C@H](O)[C@@H](OC(=O)NCc2ccccc2-c2ccccc2)[C@H]1Cc1ccc(OC)cc1 | 96 | 9 | 10 | – | – | – |
| COc1ccc(C[C@@H]2[C@H](OC(=O)N[C@@H]3CCN(Cc4ccccc4)C3)[C@@H](O)CN2C(=O)Nc2ccc(-c3ccccc3)cc2)cc1 | – | 2 | – | 16 (≈ 25.8 µM) | < 5 | 20 |
| COc1ccc(C[C@@H]2[C@H](OC(=O)NC3CCN(Cc4ccccc4)CC3)[C@@H](O)CN2C(=O)c2cc(-c3ccc(Cl)cc3)oc2C(F)(F)F)cc1 | – | 8 | – | 16 (≈ 22.5 µM) | < 5 | < 5 |
| COc1ccc(C[C@@H]2[C@H](OC(=O)NCc3ccccc3F)[C@@H](O)CN2C(=O)c2cc(C(F)(F)F)cc(C(F)(F)F)c2)cc1 | 87 | 10 | < 5 | – | – | – |
| COc1ccc(C[C@@H]2[C@H](OC(=O)NCc3ccccc3)[C@@H](O)CN2C(=O)c2cc(C(F)(F)F)cc(C(F)(F)F)c2)cc1 | 87 | 16 | 8 | – | – | – |
| COc1ccc(C[C@@H]2[C@H](OC(=O)N3CCN(C)CC3)[C@@H](O)CN2C(=O)c2cc(-c3ccc(Cl)cc3)oc2C(F)(F)F)cc1 | – | 10 | – | 32 (≈ 51.4 µM) | < 5 | 10 |
| CCOC(=O)N1C[C@H](O)[C@@H](OC(=O)NCc2ccccc2-c2ccccc2)[C@H]1Cc1ccc(OC)cc1 | 83 | 22 | 14 | – | – | – |
